Test results published in patent US10781456B2, “Carbon-neutral and carbon-positive photorespiration bypass routes supporting higher photosynthetic rate and yield” (Max-Planck-Gesellschaft zur Förderung der Wissenschaften …, priority 2015, dated 2020).
Where two headings read alike, the source gives them in different places.

Experiments:
[1] = biological target: D-fructose 6-phosphate aldolase encoded by E. coli gene fsaA (UniProt P78055); conditions: cited from earlier work
[2] = biological target: D-fructose 6-phosphate aldolase encoded by E. coli gene fsaB (UniProt P32669); conditions: cited from earlier work
[3] = biological target: transaldolase TalB from E. coli (UniProt P0A870); conditions: cited from earlier work
[4] = biological target: transaldolase Tal from B. subtilis (UniProt P19669); conditions: cited from earlier work
[5] = biological target: transaldolase Tal from C. glutamicum (UniProt Q8NQ64); conditions: cited from earlier work
[6] = substrate: O=C(COP(=O)(O)O)[C@H](O)[C@H](O)CO; assay: isomerisation of D-ribulose 1-phosphate to D-ribose 1-phosphate (reaction 29#), preliminary study; type: biochemical; conditions: other: preliminary study
[7] = substrate: O=C(O)CO; assay: purified protein, by the assay type; conditions: other: 37° C., pH 7.5, 2 mM acetyl-CoA, 10-800 mM glycolate, n=3
glycolyl-CoA [8] = assay: MCRCa coupled assay: glycolyl-CoA carboxylation by PCC coupled to two step reduction to glycerate by MCRCa (reactions 3#, 4#, 5), HPLC-hrMS and NADPH absorption; type: biochemical
Method: In addition to the above mentioned assays also another assay was performed in which the formation of tartronyl-CoA from glycolyl-CoA (reaction 3#) by the PCCMe_D407I_Y143H enzyme was directly coupled to its subsequent two step reduction via tartronate-semialdehyde (reaction 4#) to glycerate (reaction 5) by use of the purified MCRCa (Kröger et al., 2011, loc. cit.). The reaction mixture (300 μL) contained 200 mM NH4HCO3 buffer, pH 7.7, 5 mM MgCl2, 1 mM ATP, 0.4 mM NADPH, 43 μg PCCMe_D407I_Y143H, and 184 μg of MCRCa.
To determine whether MCRCa was able to catalyze the two step reduction of tartonyl-CoA to glycerate (via tartronic semialdehyde), samples of the reaction mixture were withdrawn after all of the NADPH was consumed. The samples were stopped with formic acid (5% final concentration). The acidified samples were centrifuged at 4° C. and 17 000×g and the supernatants were analyzed by HPLC-hrMS.
The formation of glycerate was analyzed using an Agilent 6550 iFunnel Q-TOF LC-MS system equipped with an electrospray ionization source set to negative ionization mode. […]
LC-MS data were analyzed using MassHunter Qualitative Analysis software (Agilent). […] In such assays the tartronate semialdehyde can be covalently derivatized with phenylhydrazine to a phenylhydrazone, which can be detected by its absorbance at 324 nm and confirmed by its corresponding mass spectrum. […]

glycolyl-CoA [9] = assay: propionyl-CoA carboxylase ATP hydrolysis assay coupled to PK/LDH, NADH oxidation at 340 nm, product tartronyl-CoA confirmed by UPLC-hrMS (reaction 3#); type: biochemical
Method: The activity of the PCCMe_D407I_Y143H protein as well as the PCCMe protein was determined spectrophotometrically at 37° C. The ATP hydrolysis reaction of the respective enzyme was coupled to ATP regeneration by pyruvate kinase (PK) with phosphoenolpyruvate (PEP) and subsequent reduction to lactate by lactate dehydrogenase (LDH). The oxidation of NADH by LDH was followed spectrophotometrically at 340 nm. The reaction mixture (300 μL) contained 200 mM NH4HCO3 buffer, pH 7.7, 5 mM MgCl2, 1 mM ATP, 1 mM PEP, 4 U PK, 5.8 U LDH, 0.3 mM NADH and 48 μg of PCCMe_D407I_Y143H or PCCMe. The reaction was initiated by addition of 1 mM glycolyl-CoA. Samples for UPLC-hrMS were withdrawn and stopped by acidification (5% formic acid) after most of the NADH was consumed. Precipitated protein was removed by centrifugation at 4° C. and 17 000×g. The supernatants were analyzed by UPLC-hrMS as described above. […] As mentioned above, and shown in FIG. 10, the glycolyl-CoA carboxylation activity of the PCCMe_D407I_Y143H enzyme was confirmed by direct detection of the product tartronyl-CoA by UPLC-hrMS.
In a second assay, the reaction mixture was slightly modified for a ^13C labeling experiment. Here, the reaction mixture contained 50 mM NH4HCO3 buffer, pH 7.7 and 150 mM [^13C]NaHCO3, pH 7.7 (otherwise as above-mentioned). […]

[10] = as an acceptor, read-out: KM for glycolaldehyde as an acceptor
[11] = bound stated for both fsaA and fsaB enzymes, read-out: KM (condensation of glycolaldehyde as donor with D-glyceraldehyde 3-phosphate as acceptor)
[12] = D-fructose 6-phosphate and glycolaldehyde, range over the three transaldolases
[13] = transaldolase reaction with D-fructose 6-phosphate, read-out: KM towards glycolaldehyde

Molecule: O=CCO [glycolaldehyde]
- Km [1, 10]: > 60000 µM
- Km [1, 11]: < 1000 µM
- Km ([1]; read-out: KM for glycolaldehyde): ~200 µM
- Km [2, 10]: > 60 mM
- Km [2, 11]: < 1 mM
- vmax [3, 12]: 1.6 to 8.8 µmol/min/mg
- Km [3, 13]: > 60 mM
- vmax [4, 12]: 1.6 to 8.8 µmol/min/mg
- Km [4, 13]: > 60 mM
- vmax [5, 12]: 1.6 to 8.8 µmol/min/mg
- Km [5, 13]: > 60 mM

B1: 5-methylthio-D-ribulose 1-phosphate 1,2-isomerase Rru_A0360 (Rhodospirillum rubrum ATCC 11170) (protein)
chain: MNVKGTPTRTIWPAREGGAVWIIDQTRLPHEFVTQRLNDLGAVAHAIRAMLVRGAPLIGATAAYGVALGMAEDPSDEGLTRACQTLLATRPTAVNLRWAIEAMAESLAAVPPDQRAQAAWAKAGAICDEDVALNEAIGDHGLGIIKDLARTKGVEKGGEGPINILTHCNAGWLATVDWGTALAPLYKAHDAGLPIHVWVDETRPRNQGASLTAWELNSHGVPHTVIADNTGGHLMQHGLVDMVIVGTDRTTATGDVCNKIGTYLKALAAFDNAVPFYVALPGPTIDWTVNDGLREIPIEQRDAAEVTRVWGRTAAGALEWVTITPTGSPAANYAFDVTPARLITGLITERGVCAASAAGLAGLYPERAPAPVPAGSAAGKGAAATADGAL
notes: preliminary kinetics, preparation not described
- kcat [6]: 0.03 s⁻¹

B2: propionyl-CoA transferase from Ralstonia eutropha (PCTRe), wild type, SEQ ID NO: 12 (Cupriavidus necator H16) (protein)
chain: MKVITAREAAALVQDGWTVASAGFVGAGHAEAVTEALEQRFLQSGLPRDLTLVYSAGQGDRGARGVNHFGNAGMTASIVGGHWRSATRLATLAMAEQCEGYNLPQGVLTHLYRAIAGGKPGVMTKIGLHTFVDPRTAQDARYHGGAVNERARQAIAEGKACWVDAVDFRGDEYLFYPSFPIHCALIRCTAADARGNLSTHREAFHHELLAMAQAAHNSGGIVIAQVESLVDHHEILQAIHVPGILVDYVVVCDNPANHQMTFAESYNPAYVTPWQGEAAVAEAEAAPVAAGPLDARTIVQRRAVMELARRAPRVVNLGVGMPAAVGMLAHQAGLDGFTLTVEAGPIGGTPADGLSFGASAYPEAVVDQPAQFDFYEGGGIDLAILGLAELDGHGNVNVSKFGEGEGASIAGVGGFINITQSARAVVFMGTLTAGGLEVRAGDGGLQIVREGRVKKIVPEVSHLSFNGPYVASLGIPVLYITERAVFEMRAGADGEARLTLVEIAPGVDLQRDVLDQCSTPIAVAQDLREMDARLFQAGPLHL
- Km [7]: 51.7 ± 9.6 mM (glycolate) mM

B3: PCCMe: propionyl-CoA carboxylase of Methylobacterium extorquens, subunits pccA (SEQ ID NO: 2) and pccB (SEQ ID NO: 4) (protein, listed as Methylobacterium extorquens)
alpha: MFDKILIANRGEIACRIIKTAQKMGIKTVAVYSDADRDAVHVAMADEAVHIGPAPAAQSYLLIEKIIDACKQTGAQAVHPGYGFLSERESFPKALAEAGIVFIGPNPGAIAAMGDKIESKKAAAAAEVSTVPGFLGVIESPEHAVTIADEIGYPVMIKASAGGGGKGMRIAESADEVAEGFARAKSEASSSFGDDRVFVEKFITDPRHIEIQVIGDKHGNVIYLGERECSIQRRNQKVIEEAPSPLLDEETRRKMGEQAVALAKAVNYDSAGTVEFVAGQDKSFYFLEMNTRLQVEHPVTEMITGLDLVELMIRVAAGEKLPLSQDQVKLDGWAVESRVYAEDPTRNFLPSIGRLTTYQPPEEGPLGGAIVRNDTGVEEGGEIAIHYDPMIAKLVTWAPTRLEAIEAQATALDAFAIEGIRHNIPFLATLMAHPRWRDGRLSTGFIKEEFPEGFIAPEPEGPVAHRLAAVAAAIDHKLNIRKRGISGQMRDPSLLTFQRERVVVLSGQRFNVTVDPDGDDLLVTFDDGTTAPVRSAWRPGAPVWSGTVGDQSVAIQVRPLLNGVFLQHAGAAAEARVFTRREAELADLMPVKENAGSGKQLLCPMPGLVKQIMVSEGQEVKNGEPLAIVEAMKMENVLRAERDGTISKIAAKEGDSLAVDAVILEFA
beta: MKDILEKLEERRAQARLGGGEKRLEAQHKRGKLTARERIELLLDHGSFEEFDMFVQHRSTDFGMEKQKIPGDGVVTGWGTVNGRTVFLFSKDFTVFGGSLSEAHAAKIVKVQDMALKMRAPIIGIFDAGGARIQEGVAALGGYGEVFRRNVAASGVIPQISVIMGPCAGGDVYSPAMTDFIFMVRDTSYMFVTGPDVVKTVTNEVVTAEELGGAKVHTSKSSIADGSFENDVEAILQIRRLLDFLPANNIEGVPEIESFDDVNRLDKSLDTLIPDNPNKPYDMGELIRRVVDEGDFFEIQAAYARNIITGFGRVEGRTVGFVANQPLVLAGVLDSDASRKAARFVRFCNAFSIPIVTFVDVPGFLPGTAQEYGGLIKHGAKLLFAYSQATVPLVTIITRKAFGGAYDVMASKHVGADLNYAWPTAQIAVMGAKGAVEIIFRAEIGDADKIAERTKEYEDRFLSPFVAAERGYIDEVIMPHSTRKRIARALGMLRTKEMEQPWKKHDNIPL
modifications: [CDS]1..2004 from SEQ ID NO 1; [CDS]1..1533 from SEQ ID NO 3
- activity with glycolyl-CoA in the MCRCa coupled assay (glycolyl-CoA [8]): no activity could be measured
- glycolyl-CoA carboxylation activity (tartronyl-CoA by UPLC-hrMS) (glycolyl-CoA [9]): exhibited a glycolyl-CoA carboxylation activity, although the activity was lower
- glycolyl-CoA-dependent ATP hydrolysis rate (glycolyl-CoA [9]; 1 mM glycolyl-CoA, 37° C.): 0.4 U mg^−1
